Experimental data published in patent publication US10617677B2, “Nuclear transport modulators and uses thereof” (Biogen MA Inc., priority 2012, dated 2020).

What was measured:
[1] = test system: IMQ-induced psoriasis; assay: Imiquimod (IMQ)-induced dermal inflammation/psoriasis model, Study 2; assay type: in vivo, mice; conditions: Compound 2 2.5 mg/kg, cyclophosphamide 10 mg/kg
Method: Forty (40) male BALB/c mice (Biological E Limited, Hyderabad (CPCSEA registration number: 36/99/CPCSEA)) were divided into four (4) groups consisting of ten (10) mice each. Animals were randomized based on their body weight. The groups were designated as Group-I (Naïve), Group-II (IMQ; vehicle (PEG 400 and HPBCD)), Group-III (IMQ; Compound 2 (2.5 mg/kg)) and […] (IMQ; cyclophosphamide (10 mg/kg)).
A small area on the dorsum of each mouse was shaved, ensuring that these areas were of equal size/area. Psoriasis was induced in Groups II to IV by topical application of 50 mg of IMQ cream daily from Day 1 to Day 6 on the dorsum of the animals. On Day 1 and Day 2 of the study, four hours after topical application of IMQ, Compound 2 or positive control (cyclophosphamide) or vehicle were administered to animals in pertinent groups. Of note, animals in Group II and Group III were subjected to subcutaneous injections, whereas animals in Group IV received oral administration. The Compound 2, vehicle and cyclophosphamide treatment was terminated on Day 2. These groups of animals were maintained on daily IMQ treatments until Day 6. On Day 7, the psoriasis-induced animals were re-randomized into 3 groups consisting of 10 animals each based on Cumulative Disease Activity Index (CDAI). From Day 7 to Day 9, animals received vehicle or positive control or Compound 2. Of note, on these days animals were not treated with IMQ. From Day 10 to Day 14, the animals were treated alternatively with IMQ (Days 10, 12 and 14), or vehicle, positive control or Compound 2 (Days 11, 13).
All animals were observed daily for a period of 16 days for gross observations, body weight and feed and water intake. On Days 1 and 2, scorings of erythema, scaling, folding and thickening of skin were recorded 2 hours after administration of vehicle/positive control/test compounds, and on Days 3 to 14 scorings were recorded 4 hours after IMQ application, or administration of positive control, vehicle or Compound 2.
Vehicle was prepared by dissolving 40 mg of HPBCD in 70.0 mL of distilled water. Compound 2 was prepared by dissolving 3.59 mg in 0.5% PVP and 0.5% Pluronic. Cyclophosphamide was prepared by dissolving 500 mg of CMC in 100 mL distilled water.
The experimental results shown in Table 10 are expressed as mean±SEM. Data was assessed using one-way ANOVA, and post hoc analysis was performed using Dunnett's test.

[2] = test system: NF-κB; assay: NF-κB transcriptional activity in TNFα-induced HeLa cells; assay type: cell-based; conditions: Homo sapiens, 1 h pre-treatment, then 4 h of 20 ng/mL TNFα, average of three experiments, read-out: IC50, inhibition of NF-κB transcriptional activity
Method: The compounds were tested on HeLa (adenocarcinoma) cells to quantify their ability to inhibit NF-κB transcriptional activity. NF-κB activity was induced in HeLa cells by TNFα, and then the compounds were added to inhibit the induced NF-κB activity. Half maximal inhibitory concentrations (IC50) of several compounds, namely Compound 1, Compound 2 and Compound 12, were determined by dose response studies.
HeLa cells were plated in a 12-well plate (200,000 cells/well) and cultured in Eagle's Minimal Essential medium (EMEM) from Lonza supplemented with 10% heat-inactivated fetal bovine serum (Invitrogen) and 50 μg/mL penicillin/streptomycin (Invitrogen), and were left overnight to attach. Cells were pre-treated with serial diluted (started at 30 µM; 1:3 dilution) compounds for 1 h and then exposed to 20 ng/mL TNFα (Peprotech) for 4 h in serum free media. After the treatment, the cells were washed with PBS (Invitrogen), and lysed with RIPA buffer (Themo Scientific). The transcription activity of NF-κB in the cells was measured by Chemiluminescent Transcription Factor Assay kit (Thermo Scientific Catalog #89859), according to the manufacturer's instruction. Briefly, 1.5 mg/mL of RIPA lysed whole cell extract from each treatment were incubated in a 96-well plate bound with NF-κB biotinylated-consensus sequence. The active NF-κB transcription factor bound to the consensus sequence was incubated with NF-κB p65 primary antibody and then with a secondary HRP-conjugated antibody. A chemiluminescent substrate was added to the wells and the resulting signal was detected using a luminometer. Three separate experiments were analyzed for each concentration of the IC50 curves. XLFit model 205 was used to calculate IC50 curves.
Inhibition of NF-κB transcriptional activity was measured by serial dilutions of Compound 1, Compound 2 and Compound 12 after 1 h of compound pre-treatment followed by 4 h of 20 ng/mL TNFα exposure. Three independent experiments were scored for each concentration, with the average being presented here.

[3] = Brain to plasma ratio (B:P) in mice; assay type: in vivo
Method: Brain tissue following collection was rinsed with cold saline, dried on filter paper, weighed and snap-frozen by placing on dry ice. All samples were stored frozen at approximately −80° C. until analysis. […] Plasma samples were treated with the identical method (except homogenization step) and concentration of compound in either matrix was calculated based on the generated standard curves.

[4] = test system: A549 xenograft tumors; assay: A549 lung carcinoma xenograft in SCID mice; assay type: in vivo; conditions: for mean tumor volume: 5 mg/kg IP Days 1, 15
Method: The A549 cell line was derived from explant culture of alveolar carcinoma tissue from a person. The cells were grown in Ham's F12-K tissue culture media with 10% fetal calf serum and 1% penicillin/streptomycin. Cells were routinely trypsinized and passaged 1:10. Thirty-two (32) female CB-17 SCID mice (Charles River Labs strain code 236), aged 5 to 6 weeks were used with a mean pre-treatment body weight of 16.3 grams. Mice were divided into four (4) groups of eight (8) prior to the initiation of treatment based on tumor volume. On the day of implantation, cells were washed in PBS, trypsinized and resuspended in complete media to a density of 2×10^7 cells/mL prior to being mixed with an equal volume of Matrigel. This mixture was then inoculated subcutaneously into mice in a volume of 0.1 mL using a 23G needle.
Animal weights and condition were recorded daily, and tumors were measured on Mondays, Wednesdays and Fridays with micro-calipers, and tumor volume was calculated as (length×width×width)/2.
Animals with weight loss of more than 20% of their starting weight were euthanized. Mice with weight loss of more than 15% of their starting weight were not treated again until weight loss recovered to less than 5% of their starting weight. Any animals with a tumor volume of more than 1500 mm^3 were euthanized.
Dosing solutions were prepared fresh on each day of dosing. Compound 2 was supplied as a lyophilized powder containing 69.61% Compound 2 with the balance made up of Pluronic F-68 and PVP K29/32. This was prepared by dissolving the lyophilized powder in sterile water. Cisplatin was dissolved at 5 mg/mL in DMSO and diluted 1:10 in sterile water for injection. All test articles were administered in a volume of 0.1 mL/10 g body weight.
Statistical differences between treatment groups were determined using Mann-Whitney Rank Sum or ANOVA tests with a critical value of 0.05.

[5] = Pharmacokinetics (plasma AUCInf) in mice; assay type: in vivo; conditions: 10 mg/kg po
Method: Blood was collected from mice (N=3) to contribute to the total of 10 time points (pre-dose, 5 min, 15 min, 30 min, 1 hour, 2 hours, 4 hours, 8 hours, 12 hours and 24 hours post dose). Mice were bled on a rotating basis, each mouse contributing 3 time points to the blood collection. At the designated time points, animals were anaesthetized under isoflurane, and approximately 110 μL of blood per time point was collected via retro-orbital puncture into pre-cooled K2EDTA (anti-coagulant) tubes. Blood samples were put on wet ice and centrifuged (2000 g, 5 min at 4° C.) to obtain plasma within 30 minutes of sample collection. All samples were stored frozen at approximately −80° C. until analysis. Prior to analysis, samples were mixed with internal standard (dexamethasone) in acetonitrile, vortexed, centrifuged, and supernatant was injected for analysis. Concentration of compounds in plasma was determined using LC-MS-MS instrumentation (API 4000, Triple Quadruple with electrospray ionization; Acuity Ultra Performance Liquid Chromatography column C18, with MeOH and formic acid as organic solvents). PK parameters including but not limited to Tmax, Cmax, t1/2, AUClast, AUCInf were calculated using WinNonlin Professional 6.2 software package, non-compartmental pharmacokinetic model NCA200.

O=P1(N(CCCl)CCCl)NCCCO1 (stereo not drawn) [cyclophosphamide, reference compound]
Rate of reduction of DAI, % change from 1st dose administration ([1]; Day 7, 4 hr. post-IMQ/drug administration readings): 23.3%
Rate of reduction of DAI, % change from 1st dose administration ([1]; Day 7, pre-IMQ/drug administration readings): 0.0%
Rate of reduction of DAI, % change from 1st dose administration ([1]; Day 8, 4 hr. post-IMQ/drug administration readings): 20.9%
Rate of reduction of DAI, % change from 1st dose administration ([1]; Day 8, pre-IMQ/drug administration readings): 16.3%
Rate of reduction of DAI, % change from 1st dose administration ([1]; Day 9, 4 hr. post-IMQ/drug administration readings): −41.9%
Rate of reduction of DAI, % change from 1st dose administration ([1]; Day 9, pre-IMQ/drug administration readings): −39.5%
Rate of reduction of DAI, % change from 1st dose administration ([1]; Day 10, 4 hr. post-IMQ/drug administration readings): −86.0%
Rate of reduction of DAI, % change from 1st dose administration ([1]; Day 10, pre-IMQ/drug administration readings): −79.1%
Rate of reduction of DAI, % change from 1st dose administration ([1]; Day 11, 4 hr. post-IMQ/drug administration readings): −25.6%
Rate of reduction of DAI, % change from 1st dose administration ([1]; Day 11, pre-IMQ/drug administration readings): −25.6%
Rate of reduction of DAI, % change from 1st dose administration ([1]; Day 12, 4 hr. post-IMQ/drug administration readings): −34.9%
Rate of reduction of DAI, % change from 1st dose administration ([1]; Day 12, pre-IMQ/drug administration readings): −39.5%
Rate of reduction of DAI, % change from 1st dose administration ([1]; Day 13, 4 hr. post-IMQ/drug administration readings): −32.6%
Rate of reduction of DAI, % change from 1st dose administration ([1]; Day 13, pre-IMQ/drug administration readings): −25.6%
Rate of reduction of DAI, % change from 1st dose administration ([1]; Day 14, 4 hr. post-IMQ/drug administration readings): −32.6%
Rate of reduction of DAI, % change from 1st dose administration ([1]; Day 14, pre-IMQ/drug administration readings): −34.9%
Rate of reduction of DAI, % change from 1st dose administration ([1]; Day 15, pre-IMQ/drug administration readings): −41.9%

O=C(/C=C\n1cnc(-c2cc(C(F)(F)F)cc(C(F)(F)F)c2)n1)NNC(=O)C(=O)N1CCOCC1 [Compound 12, (Z)-3-(3-(3,5-bis(trifluoromethyl)phenyl)-1H-1,2,4-triazol-1-yl)-N′-(2-morpholino-2-oxoacetyl)acrylohydrazide]
IC50 [2]: 1460 nM

O=C(/C=C\n1cnc(-c2cc(C(F)(F)F)cc(C(F)(F)F)c2)n1)N1CC(F)(F)C1 [Compound X-3]
B:P ([3]; mice, 10 mg/kg po, 2 hours post-dose): 5.0

N.N.[Cl][Pt][Cl] [cisplatin, reference compound]
tumor growth versus vehicle control group (mean AUC of tumor volume, one-way ANOVA) ([4]; Compound 2 5 or 10 mg/kg PO, cisplatin 5 mg/kg IP): no statistically significant reduction in tumor growth
mean tumor volume ([4]; Day 1): 104 mm^3
mean tumor volume ([4]; Day 29): 1136 mm^3

COc1cc(-c2ncn(/C=C\C(=O)OC(C)C)n2)cc(C(F)(F)F)c1 [Compound X-1]
levels in the brain ([3]; dosed po): below the quantitation limit
AUCInf [5]: below the limit of detection
